Experimental data: US9926276B2, “Substituted benzamides with activity towards EP4 receptors” (DRACONIS PHARMA, S.L., priority 2013, dated 2018)

Assays:
human EP4 receptor [1] = molecular target: T1, human EP4 receptor (Homo sapiens, UniProt P35408); experiment: Human EP4 receptor radioligand binding assay (Test 1); design: expressed in transfected cells; host or cells: HEK-293 cell membranes; settings: [3H]-PGE2 1 nM, transfected HEK-293 cell membranes; for Results of Test 1 (Binding assay, % inh): at 10 μM; for inhibition at 10 µM: read-out: Results of Test 1 (Binding assay, % inh)
Procedure: Test 1: Human EP4 Receptor Radioligand Binding Assay
To investigate binding properties of EP4 receptor ligands to human EP4 receptor, transfected HEK-293 cell membranes and [3H]-PGE2 (Perkin Elmer) were used. In 96-well plates the assay was carried out with a total reaction volume of 250 μl, containing 25 μl of membrane suspension (30 μg protein/well), 25 μl of [3H]-PGE2 (1 nM) in either absence or presence of 25 μl of either buffer or PGE2 (10 μM) for total and non-specific binding, respectively. Binding buffer contained 25 mM MES, 10 mM MgCl2 and 1 mM EDTA at pH 6.0. Plates were incubated at 25° C. for 120 minutes. After the incubation period, 200 μl of incubate were transferred to MultiScreen HTS, FB plates (Millipore), filtered and plates were washed 6 times with ice-cold 10 mM MES, 0.01% BSA at pH 6.0. Filters were dried and counted in a MicroBeta scintillation counter (Perkin-Elmer) using EcoScint liquid scintillation cocktail.
Percentage inhibition was calculated relating compounds activity to the 0% inhibition of the wells incubated with 1 nM [3H]-PGE2 alone (total binding) and 100% inhibition of the wells incubated with 1 nM [3H]-PGE2 plus 10 μM PGE2 (non-specific binding).

human EP4 receptor [2] = molecular target: T1, human EP4 receptor; experiment: Measurement of cAMP responses by Homogeneous Time Resolved Fluorescence (Test 2); assay type: cell-based; design: expressed in transfected cells; settings: for Results of Test 2 (Functional assay, antagonist % inh): at 10 μM, PGE2 1 nM, HEK-293 cells stably expressing human EP4; for inhibition at 10 µM: HEK293, PGE2 1 nM, HEK-293 cells stably expressing human EP4, read-out: Results of Test 2 (Functional assay, antagonist % inh)
Procedure: Test 2: Measurement of cAMP Responses by Homogeneous Time Resolved Fluorescence
cAMP measurements on HEK-293 cells that stably expressed human EP4 receptors were performed by using a system based on Homogeneous Time Resolved Fluorescense (HTRF). This technology allows the direct measurement of cAMP in living cells. The principle of this assay is based on competition between cAMP produced by cells and cAMP-d2 conjugate for the binding with monoclonal anti-cAMP-cryptate conjugate. The HTRF cAMP kit from CisBio was used according to the manufacturer's directions. The experimental procedure was performed as stated below.
Suspended cells (30,000 cells per well) were added to 96-well culture plates in 30 μl of Optimem supplemented with 500 μM IBMX. Compounds were then added in 10 μl of stimulation buffer and incubated at 25° C. for 30 minutes followed by 10 μl of PGE2 to a final concentration of 1 nM. After 30 minutes at 25° C., the reaction was stopped lysing the cells with a mixture of 25 μl of cryptate and 25 μl of cAMP-d2 prepared in the lysis buffer supplied by the manufacturer. Plates were incubated for an additional hour at room temperature and read at 665 nm/620 nm using an UltraEvolution Plate reader (Tecan).
Antagonist percentage inhibition was calculated relating compounds activity to the 0% inhibition of the wells incubated with 1 nM PGE2 alone and 100% inhibition of the wells incubated with 1 nM PGE2 plus 1 μM of the reference antagonist.

T1 sequence (P35408 whole entry): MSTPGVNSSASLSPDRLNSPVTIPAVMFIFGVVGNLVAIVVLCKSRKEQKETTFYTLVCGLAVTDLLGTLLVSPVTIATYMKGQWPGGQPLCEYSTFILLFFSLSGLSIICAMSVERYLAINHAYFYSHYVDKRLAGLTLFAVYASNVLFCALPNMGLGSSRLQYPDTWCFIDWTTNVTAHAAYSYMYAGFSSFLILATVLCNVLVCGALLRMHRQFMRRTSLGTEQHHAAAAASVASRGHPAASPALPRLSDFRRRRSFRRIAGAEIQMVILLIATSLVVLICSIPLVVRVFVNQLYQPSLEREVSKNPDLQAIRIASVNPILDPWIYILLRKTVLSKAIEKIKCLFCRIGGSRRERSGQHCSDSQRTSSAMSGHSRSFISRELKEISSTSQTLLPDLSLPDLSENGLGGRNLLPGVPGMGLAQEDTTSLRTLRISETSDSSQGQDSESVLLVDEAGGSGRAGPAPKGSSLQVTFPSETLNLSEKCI

| Results of Test 1 (Binding assay, % inh) (human EP4 receptor [1]) | Results of Test 2 (Functional assay, antagonist % inh) (human EP4 receptor [2]) | inhibition at 10 µM (human EP4 receptor [1]) [%] | inhibition at 10 µM (human EP4 receptor [2]) [%] | Compound |
| --- | --- | --- | --- | --- |
| # (% inh >75) | $ (% inh >75) | – | – | Cc1ccc(-c2cccc(F)c2)cc1C(=O)Nc1c(C)cc(C(=O)O)cc1C [Example 4, 4-(3′-Fluoro-4-methylbiphenyl-3-ylcarboxamido)-3,5-dimethylbenzoic acid] |
| # (% inh >75) | $ (% inh >75) | – | – | Cc1ccc(-c2cccc(C#N)c2)cc1C(=O)Nc1c(C)cc(C(=O)O)cc1C [Example 5, 4-(3′-Cyano-4-methylbiphenyl-3-ylcarboxamido)-3,5-dimethylbenzoic acid] |
| # (% inh >75) | $ (% inh >75) | – | – | Cc1ccc(-c2cccc(CO)c2)cc1C(=O)Nc1c(C)cc(C(=O)O)cc1C [Example 9, 4-(3′-(Hydroxymethyl)-4-methylbiphenyl-3-ylcarboxamido)-3,5-dimethylbenzoic acid] |
| # (% inh >75) | $ (% inh >75) | – | – | Cc1ccc(-c2cc(Cl)ccc2F)cc1C(=O)Nc1c(C)cc(C(=O)O)cc1C [Example 10, 4-(5′-Chloro-2′-fluoro-4-methylbiphenyl-3-ylcarboxamido)-3,5-dimethylbenzoic acid] |
| # (% inh >75) | $ (% inh >75) | – | – | Cc1ccc(-c2cc(F)ccc2F)cc1C(=O)Nc1c(C)cc(C(=O)O)cc1C [Example 11, 4-(2′,5′-Difluoro-4-methylbiphenyl-3-ylcarboxamido)-3,5-dimethylbenzoic acid] |
| # (% inh >75) | $ (% inh >75) | – | – | COc1ccc(F)c(-c2ccc(C)c(C(=O)Nc3c(C)cc(C(=O)O)cc3C)c2)c1 [Example 12, 4-(2′-fluoro-5′-methoxy-4-methylbiphenyl-3-ylcarboxamido)-3,5-dimethylbenzoic acid] |
| # (% inh >75) | $ (% inh >75) | – | – | Cc1ccc(-c2cccc(C(N)=O)c2)cc1C(=O)Nc1c(C)cc(C(=O)O)cc1C [Example 13, 4-(3′-Carbamoyl-4-methylbiphenyl-3-ylcarboxamido)-3,5-dimethylbenzoic acid] |
| # (% inh >75) | $ (% inh >75) | – | – | Cc1cc(C(=O)O)cc(C)c1NC(=O)c1cc(-c2cccc(Cl)c2)ccc1Cl [Example 14, 4-(3′,4-Dichlorobiphenyl-3-ylcarboxamido)-3,5-dimethylbenzoic acid] |
| # (% inh >75) | $ (% inh >75) | – | – | Cc1ccc(-c2cccc(Cl)c2)cc1C(=O)Nc1c(C)cc(C(=O)O)cc1C [Example 20, 4-(3′-Chloro-4-methylbiphenyl-3-ylcarboxamido)-3,5-dimethylbenzoic acid] |
| # (% inh >75) | $ (% inh >75) | – | – | Cc1cc(C(=O)O)ccc1NC(=O)c1cc(-c2cccc(Cl)c2)ccc1Cl [Example 21, 4-(3′,4-Dichlorobiphenyl-3-ylcarboxamido)-3-methylbenzoic acid] |
| # (% inh >75) | $ (% inh >75) | – | – | Cc1cc(C(=O)O)cc(Cl)c1NC(=O)c1cc(-c2cccc(Cl)c2)ccc1Cl [Example 22, 3-Chloro-4-(3′,4-dichlorobiphenyl-3-ylcarboxamido)-5-methylbenzoic acid] |
| – | – | > 75 | > 75 | Cc1cc(C(=O)O)cc(C)c1NC(=O)c1nc(-c2cccc(Cl)c2)ccc1Cl [Example 23, 4-(3-Chloro-6-(3-chlorophenyl)picolinamido)-3,5-dimethylbenzoic acid] |
| – | – | > 75 | > 75 | O=C(O)c1cc(Cl)c(NC(=O)c2cc(OCc3ccc(F)cc3F)ccc2Cl)c(Cl)c1 [Example 35, 3,5-Dichloro-4-(2-chloro-5-(2,4-difluorobenzyloxy)benzamido)benzoic acid] |
| – | – | > 75 | > 75 | O=C(O)c1cc(Cl)c(NC(=O)c2cc(OCc3ccc(Cl)cc3F)ccc2Cl)c(Cl)c1 [Example 36, 3,5-Dichloro-4-(2-chloro-5-(4-chloro-2-fluorobenzyloxy)benzamido)benzoic acid] |
| # (% inh >75) | $ (% inh >75) | – | – | Cc1ccc(C(=O)O)cc1NC(=O)c1cc(-c2cccc(Cl)c2)ccc1C [Example 38, 3-(3′-Chloro-4-methylbiphenyl-3-ylcarboxamido)-4-methylbenzoic acid] |
| – | – | > 75 | > 75 | Cc1ccc(C(=O)O)cc1NC(=O)c1nc(-c2cccc(Cl)c2)ccc1Cl [Example 42, 3-(3-Chloro-6-(3-chlorophenyl)picolinamido)-4-methylbenzoic acid] |

| Compound | Results of Test 1 (Binding assay, % inh) (human EP4 receptor [1]) | Results of Test 2 (Functional assay, antagonist % inh) (human EP4 receptor [2]) | inhibition at 10 µM (human EP4 receptor [1]) [%] | inhibition at 10 µM (human EP4 receptor [2]) [%] |
| --- | --- | --- | --- | --- |
| Cc1ccc(-c2cccc(CO)c2)cc1C(=O)Nc1c(Cl)cc(C(=O)O)cc1Cl [Example 6, 3,5-Dichloro-4-(3′-(hydroxymethyl)-4-methylbiphenyl-3-ylcarboxamido)benzoic acid] | # (% inh >75) | $ (% inh >75) | – | – |
| Cc1ccc(-c2cccc(C#N)c2)cc1C(=O)Nc1c(Cl)cc(C(=O)O)cc1Cl [Example 7, 3,5-Dichloro-4-(3′-cyano-4-methylbiphenyl-3-ylcarboxamido)benzoic acid] | # (% inh >75) | $ (% inh >75) | – | – |
| COc1cccc(-c2ccc(C)c(C(=O)Nc3c(Cl)cc(C(=O)O)cc3Cl)c2)c1 [Example 8, 3,5-Dichloro-4-(3′-methoxy-4-methylbiphenyl-3-ylcarboxamido)benzoic acid] | # (% inh >75) | $ (% inh >75) | – | – |
| Cc1ccc(-c2cccc(Cl)c2)cc1C(=O)Nc1c(Cl)cc(C(=O)O)cc1Cl [Example 15, 3,5-Dichloro-4-(3′-chloro-4-methylbiphenyl-3-ylcarboxamido)benzoic acid] | # (% inh >75) | $ (% inh >75) | – | – |
| O=C(O)c1cc(Cl)c(NC(=O)c2cc(-c3cccc(CO)c3)ccc2Cl)c(Cl)c1 [Example 16, 3,5-Dichloro-4-(4-chloro-3′-(hydroxymethyl)biphenyl-3-ylcarboxamido)benzoic acid] | # (% inh >75) | $ (% inh >75) | – | – |
| COc1cccc(-c2ccc(Cl)c(C(=O)Nc3c(Cl)cc(C(=O)O)cc3Cl)c2)c1 [Example 17, 3,5-Dichloro-4-(4-chloro-3′-methoxybiphenyl-3-ylcarboxamido)benzoic acid] | # (% inh >75) | $ (% inh >75) | – | – |
| N#Cc1cccc(-c2ccc(Cl)c(C(=O)Nc3c(Cl)cc(C(=O)O)cc3Cl)c2)c1 [Example 18, 3,5-Dichloro-4-(4-chloro-3′-cyanobiphenyl-3-ylcarboxamido)benzoic acid] | # (% inh >75) | $ (% inh >75) | – | – |
| O=C(O)c1cc(Cl)c(NC(=O)c2cc(-c3cccc(Cl)c3)ccc2Cl)c(Cl)c1 [Example 19, 3,5-Dichloro-4-(3′,4-dichlorobiphenyl-3-ylcarboxamido)benzoic acid] | # (% inh >75) | $ (% inh >75) | – | – |
| Cc1cc(C(=O)O)cc(C)c1NC(=O)c1cc(OCC(C)C)ccc1Cl [Example 24, 4-(2-Chloro-5-isobutoxybenzamido)-3,5-dimethylbenzoic acid] | – | – | > 75 | > 75 |
| CC(C)COc1ccc(Cl)c(C(=O)Nc2c(Cl)cc(C(=O)O)cc2Cl)c1 [Example 25, 3,5-Dichloro-4-(2-chloro-5-isobutoxybenzamido)benzoic acid] | – | – | > 75 | > 75 |
